According to patent US20240139210A1, “TREATMENT OF NF-KB-MEDIATED DISEASE” (ReveraGen BioPharma, Inc., priority 2020, published 2024):

Experiments:
Assay type in all cases: in vivo, human
[1] = test system: ambulant boys aged 4 to <7 years with DMD; assay: VISION-DMD Phase 2b study VBP15-004, efficacy at 24 weeks
Procedure: (§1) The second period of 24 weeks, where all participants receive vamorolone treatment on either of the two dose levels, will continue to capture additional longer-term safety and tolerability data.
The study met its primary endpoint of superiority in the change of time to stand from supine positioning to standing (TTSTAND) velocity with vamorolone 6 mg/kg/day versus placebo (p=0.002) with a treatment difference of 0.06 [95% CI: 0.02-0.10] rises/second from baseline. […] Any number p<0.05 is considered significant.

[2] = test system: ambulant boys aged 4 to <7 years with DMD; assay: VBP15-004 growth (height Z scores)
Source text: as §1

participants with DMD [3] = assay: Physician-reported adverse events in vamorolone trials (DSUR, DSMB report)
Procedure: Study visits took place quarterly, including assessment of clinical laboratory results, vital signs, and AEs. All AEs were coded using the Medical Dictionary for Regulatory Activities (MedDRA version 19.0) system for reporting (preferred term and system organ class). Clinical efficacy assessments were performed at baseline of the VBP15-002 study, at six months (end of VBP15-003 study), and the 12-month midpoint visit of the VBP15-LTE study.
A Data and Safety Monitoring Board report on the VBP15-LTE study covering all participants enrolled in the VBP15-LTE study (inclusive beyond the 12-month midpoint assessment) included three serious AEs (2 myoglobinuria events [in the same participant] and one pneumonia), all deemed unrelated to study drug. For all reported TEAEs, 402 were deemed unrelated to vamorolone, 37 were deemed remotely related, 29 were deemed possibly related, 11 were deemed probably related, and three were deemed definitely related. Of the 14 AEs probably and definitely related to vamorolone, 10 were weight gain, 2 were increased appetite, 1 was Cushingoid features, and 1 was irritability.
The incidences of physician-reported AEs typically for corticosteroid treatment were determined for participants that had been treated with vamorolone 6.0 mg/kg/day (for any duration), taken from the March 2019 Data Safety Update Report (DSUR) (pharmacovigilance report). Incidence rates of Cushingoid features, weight gain, hirsutism, and behavior change were studied (Table 8).

[4] = test system: ambulant boys aged 4 to <7 years with DMD; assay: VBP15-004 bone turnover biomarkers; details: for CTX, difference vs. prednisone / Osteocalcin, difference vs. prednisone / P1NP, difference vs. prednisone: Week 24
[5] = VBP15-002 multiple ascending dose trial, PK and safety
Procedure: Vamorolone clinical studies have been conducted in adult male volunteers and boys with DMD, a disorder in which skeletal muscle is in a chronic inflammatory state. Two consecutive open-label dose-ranging studies in 48 DMD patients aged 4 to <7 years (corticosteroid-naïve) were conducted (Phase IIa, VBP15-002; Phase IIa, VBP15-003). Doses were tested over a 24-fold dose range (0.25, 0.75, 2.0, and 6.0 mg/kg/day), with 12 participants per group. The first multiple ascending dose (MAD) cohort trial-tested pharmacokinetics (PK) and safety for 2 weeks of drug dosing followed by a 2-week washout (VBP15-002). […] All DMD participants completed the MAD study and then continued on the same dose for a 24-week dose-finding (efficacy and safety) extension study (VBP15-003).
VBP15-002 (Phase IIa; two weeks on the drug, two weeks off drug) enrolled 48 corticosteroid-naïve participants with DMD, and all 48 participants completed the study and enrolled into VBP15-003 (Phase IIa extension; 24-week treatment). Forty-six of 48 participants completed the VBP15-003 study (2 participants withdrew from VBP15-003 for reasons unrelated to the study drug). In addition, all participants (46/46) opted to enroll in the 24-month long-term extension study, VBP15-LTE.

participants with DMD [6] = assay: CINRG DNHS corticosteroid-treated external comparator; details: vamorolone versus corticosteroid-treated DNHS, 18 months
Source text: The consecutive vamorolone trials (VBP15-002, VBP15-003, VBP15-LTE) were open-label with no placebo comparator. Corticosteroid-naïve and corticosteroid-treated DMD participant comparators were group-matched participants from the CINRG DNHS (NCT00468832). The CINRG DNHS was an observational, prospective case-control study of 551 participants (440 with DMD, 111 healthy peers). For group matching between vamorolone-treated participants and CINRG DNHS participants, prespecified criteria were defined for matching within the interim statistical analysis plan (iSAP). Age-matched CINRG DNHS participants included those continuously corticosteroid-naïve over an 18-month period (n=19) or continuously corticosteroid-treated over an 18-month period (n=68). For the 68 corticosteroid-treated participants, as this was an observational cohort, corticosteroid doses and regimens varied based on clinician discretion. Although all 68 participants were treated for 18 months continuously, the age at initiation of corticosteroids varied. Thus, the total duration of corticosteroid treatment was longer than 18 months for most participants. […]
The incidences of physician-reported AEs typically for corticosteroid treatment were determined for participants that had been treated with vamorolone 6.0 mg/kg/day (for any duration), taken from the March 2019 Data Safety Update Report (DSUR) (pharmacovigilance report). […]

[7] = 6.0 mg/kg/day vamorolone for any duration, n = 38
[8] = VBP15-LTE, DSMB report, all participants

C[C@@H]1C[C@H]2[C@@H]3CCC4=CC(=O)C=C[C@]4(C)C3=CC[C@]2(C)[C@@]1(O)C(=O)CO [Vamorolone, 17α,21-dihydroxy-16α-methylpregna-1,4,9(11)-triene-3,20-dione]
TTSTAND after treatment (baseline 6.0 seconds) ([1]; vamorolone 6 mg/kg/day): 4.6 s
TTSTAND velocity, treatment difference versus placebo in change from baseline ([1]; vamorolone 6 mg/kg/day): 0.06 rises/second
difference between vamorolone and prednisone across TTSTAND, 6MWT, TTRW endpoints ([1]; vamorolone 6 mg/kg/day vs prednisone 0.75 mg/kg/day): no statistically significant differences
change in height Z scores from baseline to Week 24 ([2]; vamorolone 2.0 mg/kg/day): overall stable height change Z scores
change in height Z scores from baseline to Week 24 ([2]; vamorolone 6.0 mg/kg/day): increased growth rate
Incidence of physician-reported Cushingoid (participants with DMD [3]; [7]): 2.6%
Incidence of physician-reported behavior change (participants with DMD [3]; [7]): 0%^2
Incidence of physician-reported hypertrichosis/hirsutism (participants with DMD [3]; [7]): 0%
Incidence of physician-reported weight gain (participants with DMD [3]; [7]): 13.2%
Cushingoid features among the 14 AEs probably and definitely related, number (participants with DMD [3]; VBP15-LTE, DSMB report): 1
increased appetite among the 14 AEs probably and definitely related, number (participants with DMD [3]; VBP15-LTE, DSMB report): 2
irritability among the 14 AEs probably and definitely related, number (participants with DMD [3]; VBP15-LTE, DSMB report): 1
weight gain among the 14 AEs probably and definitely related, number (participants with DMD [3]; VBP15-LTE, DSMB report): 10
TEAEs deemed definitely related, number (participants with DMD [3]; [8]): three
TEAEs deemed possibly related, number (participants with DMD [3]; [8]): 29
TEAEs deemed probably related, number (participants with DMD [3]; [8]): 11
TEAEs deemed remotely related, number (participants with DMD [3]; [8]): 37
TEAEs deemed unrelated to vamorolone, number (participants with DMD [3]; [8]): 402
serious AEs, number (participants with DMD [3]; VBP15-LTE, DSMB report, all deemed unrelated to study drug): three
Osteocalcin, mean (SEM) change at Week 24 ([4]; Vamorolone 2.0 mg (N = 17)): 8.3 (3.1) ng/ml
Procollagen 1 N-Terminal Propeptide (P1NP), mean (SEM) change at Week 24 ([4]; Vamorolone 2.0 mg (N = 17)): 48 (27) ng/mL
Type I Collagen C-Telopeptides (CTX), mean (SEM) change at Week 24 ([4]; Vamorolone 2.0 mg (N = 17)): 177 (52) pg/mL
CTX, difference vs. prednisone ([4]; Vamorolone 2.0 mg): 477 (p < 0.001) pg/mL
Osteocalcin, difference vs. prednisone ([4]; Vamorolone 2.0 mg): 23.5 ng/mL
P1NP, difference vs. prednisone ([4]; Vamorolone 2.0 mg): 182 ng/mL
Osteocalcin, mean (SEM) change at Week 24 ([4]; Vamorolone 6.0 mg (N = 23)): 1.7 (2.8) ng/ml
Procollagen 1 N-Terminal Propeptide (P1NP), mean (SEM) change at Week 24 ([4]; Vamorolone 6.0 mg (N = 23)): −11 (22) ng/mL
Type I Collagen C-Telopeptides (CTX), mean (SEM) change at Week 24 ([4]; Vamorolone 6.0 mg (N = 23)): 90 (44) pg/mL
CTX, difference vs. prednisone ([4]; Vamorolone 6.0 mg): 390 (p < 0.001) pg/mL
Osteocalcin, difference vs. prednisone ([4]; Vamorolone 6.0 mg): 16.9 ng/mL
P1NP, difference vs. prednisone ([4]; Vamorolone 6.0 mg): 124 (p < 0.001) ng/mL
dose-limiting toxicities ([5]; 0.25-6.0 mg/kg/day, 2 weeks dosing): no dose-limiting toxicities
drug accumulation ([5]; day 1 vs day 14): no drug accumulation
half-life ([5]; male, human, in vivo, oral, DMD patients aged 4 to <7 years, 0.25-6.0 mg/kg/day, 2 weeks dosing): ~2 h
Mean height percentile for age, LS mean difference (SE), ANCOVA (participants with DMD [6]): 15.86 percentile
